The record followed here is patent publication US20220381779A1, “METHODS FOR THE DIAGNOSIS OF BURULI ULCER” (INSERM (INSTITUT NATIONAL DE LA SANTÉ ET DE LA RECHERCHE …, priority 2019, published 2022).

In this test the test system is CD4+ T cells. Kind of test: Neutralizing activity assay: cytokine production by PMA/ionomycin-stimulated CD4+ T cells in contact with mycolactone. Type of test: cell-based, C57Bl/6 mice. Conditions: mycolactone 4 ng/mL, 6 h, compared to positive control (T cells only stimulated). Here is the method:
FIG. 2: Neutralization of mycolactone by cutaneous immunoglobulin from FVB/N mice infected with M. ulcerans. CD4+ lymphocytes were stimulated with PMA/ionomycin. Mycolactone was used at a concentration of 4 ng/mL. Immunoglobulins purified from the skin of A) FVB/N mice or B) C57Bl/6 mice infected with M. ulcerans were used at a ratio of 10 immunoglobulin molecules per molecule of mycolactone. Left panel: IL-2 quantification, Right panel: IFNγ quantification. The data shown correspond to one experiment performed in triplicate (mean±SD).
CD4+ T cells were isolated from the spleens of C57Bl/6 mice by magnetic sorting (MACS technology kit 130-104-454), according to the manufacturer's instructions (Miltenyi Biotec). The purity of CD4+ T-cell preparations was determined by flow cytometry, with PE-conjugated anti-CD4 monoclonal antibody (eBioscience) and FITC-conjugated anti-CD3E monoclonal antibody (eBioscience). […] IL-2 and IFN-γ were quantified by ELISA (eBioscience), according to the manufacturer's instructions (Mouse IL-2 Ready-SET-Go: 88-7024 and Mouse IFN-γ Ready-SET-Go: 88-7314 respectively).
In this context, we assessed whether these antibodies could not only recognized but also neutralized mycolactone, by evaluating cytokines production by T lymphocytes as an indicator of the immunomodulatory property of mycolactone. […]

Consider `CC(=C\C=C\C(C)=C\[C@H](O)[C@@H](O)C[C@H](C)O)/C=C(C)/C=C/C(=O)O[C@H]1CCCC(=O)O[C@@H]([C@@H](C)C/C(C)=C/[C@@H](C)[C@H](O)C[C@@H](C)O)C/C=C(\C)C[C@@H]1C` [mycolactone, [(6S,7S,9E,12R)-12-[(E,2S,6R,7R,9R)-7,9-dihydroxy-4,6-dimethyldec-4-en-2-yl]-7,9-dimethyl-2-oxo-1-oxacyclododec-9-en-6-yl] (2E,4E,6E,8E,10E,12S,13S,15S)-12,13,15-trihydroxy-4,6,10-trimethylhexadeca-2,4,6,8,10-pentaenoate], for which the “IFNγ production by T cells” value was “greatly decreased” and the “IL-2 production by T cells” value is “greatly decreased”.
